Results: patent US10017580B2, “Humanized anti-Tn-MUC1 antibodies and their conjugates” (ADC THERAPEUTICS S.A., priority 2014, dated 2018)
pIC50: −log10 of the molar value.

Legend:
[1] = tested on: K562 human chronic myeloid leukaemia cells; assay: K562 assay (MTT cytotoxicity of released compounds); format: cell-based; details: drug incubation 1 hour or 96 hours (not specified which)
Protocol: K562 human chronic myeloid leukaemia cells were maintained in RPM1 1640 medium supplemented with 10% fetal calf serum and 2 mM glutamine at 37° C. in a humidified atmosphere containing 5% CO2 and were incubated with a specified dose of drug for 1 hour or 96 hours at 37° C. in the dark. The incubation was terminated by centrifugation (5 min, 300 g) and the cells were washed once with drug-free medium. Following the appropriate drug treatment, the cells were transferred to 96-well microtiter plates (10^4 cells per well, 8 wells per sample). Plates were then kept in the dark at 37° C. in a humidified atmosphere containing 5% CO2. The assay is based on the ability of viable cells to reduce a yellow soluble tetrazolium salt, 3-(4,5-dimethylthiazol-2-yl)-2,5-diphenyl-2H-tetrazolium bromide (MTT, Aldrich-Sigma), to an insoluble purple formazan precipitate. Following incubation of the plates for 4 days (to allow control cells to increase in number by approximately 10 fold), 20 μL of MTT solution (5 mg/mL in phosphate-buffered saline) was added to each well and the plates further incubated for 5 h. The plates were then centrifuged for 5 min at 300 g and the bulk of the medium pipetted from the cell pellet leaving 10-20 μL per well. […] The optical density was then read at a wavelength of 550 nm on a Titertek Multiscan ELISA plate reader, and a dose-response curve was constructed. […]

[2] = tested on: ZR-75-1 cell line, which expresses Tn-MUC1; assay: ZR-75-1 cell binding assay by flow cytometry (protocol 6); details: flow cytometry, live cells
Protocol: Protocol 6: ZR-75-1 Cell Binding Assay by Flow Cytometry Materials • Wash solution: PBS 0.1% (w/v) sodium azide • Binding buffer: PBS, 10% normal goat serum, 0.1% (w/v) sodium azide) • 96 well U-well microplate Protocol
Exponentially growing cells are suspended by incubation with cell dissociation buffer enzyme-free, Hanks-based (Gibco 13150-016) following the manufacturer's instructions. A cell count/viability is done on a dilution of 10 ul cells+Trypan Blue, 10 ul, with a haemocytomer. The suspension is centrifuged and the cell pellet re-suspended in binding buffer at 3×10^6 per ml. If significant levels of aggregates are present in the cell count, the suspension is filtered to remove aggregates. The cell suspension is dispensed (50 ul/well) in 96 well U-bottom plates and cooled on ice for 10 minutes. Primary antibody (50 ul/well) diluted in binding buffer (typically 1 ug per ml or less) is added to each well and incubated at 4° C. for 1 hour. […] Cells are then re-suspended in PBS if reading immediately or fixed in 100 ul of paraformaldehyde (2% (w/v) in PBS) and analysed with by flow cytometer (Accuri C6), gating on live cells which have a lower Fixable Viability Dye MFI compared to dead cells.
IgG binding potency to Tn-MUC1 was measured as per protocol 4 and binding to the ZR-75-1 cell line, which expresses Tn-MUC1, was measured as per protocol 6.

Tn-MUC1 (16TR-MUC1-Tn) = assay: Tn-MUC1 binding ELISA (protocol 4); set-up: species or system human; details: ELISA on 16TR-MUC1-Tn coated plate
[3] = Thermal denaturation assay (protocol 5); format: physicochemical; details: 50% inactivation temperature, 10 minutes heating, read by antigen-binding ELISA

Sequence of Tn-MUC1 (16TR-MUC1-Tn) (P15941 141-460 limits assumed): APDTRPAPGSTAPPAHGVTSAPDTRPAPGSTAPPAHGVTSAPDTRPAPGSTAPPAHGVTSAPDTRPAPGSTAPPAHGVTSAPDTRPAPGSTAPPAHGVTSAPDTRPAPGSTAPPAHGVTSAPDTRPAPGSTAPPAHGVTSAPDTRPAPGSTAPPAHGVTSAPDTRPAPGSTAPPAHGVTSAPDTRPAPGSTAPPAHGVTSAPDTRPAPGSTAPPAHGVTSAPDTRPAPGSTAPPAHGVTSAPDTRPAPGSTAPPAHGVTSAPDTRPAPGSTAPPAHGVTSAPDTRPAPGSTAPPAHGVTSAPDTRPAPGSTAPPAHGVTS

Row | ZR-75-1 cell binding EC50 [2] | Tn-MUC1 binding EC50 (Tn-MUC1 (16TR-MUC1-Tn)) | Compound | pIC50 [1] | Tm [3]
1 |  |  | COc1cc2c(cc1OCCCOc1cc3c(cc1OC)C(=O)N1C=C(C)C[C@H]1C=N3)N=C[C@@H]1CC(C)=CN1C2=O [Compound RelE] | 9.37 | 
2 | 28.34 ng/mL | 31.10 ng/mL | Mouse 5E5: anti-Tn MUC 1 antibody comprising a VH domain according to SEQ ID NO. 1 and a VL domain according to SEQ ID NO. 30 [reference compound] |  | 69.97 °C
